Source: patent publication US20090209457A1, “TREATMENT OF ANTI-ERYTHROPOIETIN ANTIBODY-MEDIATED DISORDERS WITH SYNTHETIC PEPTIDE-BASED EPO RECEPTOR AGONISTS” (Affymax, Inc., priority 2008, published 2009)
Bridge positions count the residues as written; N and C are the ends. Square brackets hold non-standard residues; d marks the D form. Ends that are not written are not given here. 1Nal = N[C@@H](Cc1cccc2ccccc12)C(=O)O; Sar = CNCC(=O)O

Tests used:
[1] = tested on: human, bone marrow derived CD34+ cells; experiment: C/BFU-e assay (erythroid colonies); assay type: cell-based; conditions: Table 6, 14 days
Experimental: EPO-R signaling stimulates the differentiation of bone marrow stem cells into proliferating red blood cell precursors. This assay measures the ability of test peptides to stimulate the proliferation and differentiation of red blood cell precursors from primary human bone marrow pluripotent stem cells.
For this assay, serial dilutions of test peptide are made in IMDM medium (Gibco) supplemented with 10% FBS (Hyclone). These serial dilutions, or positive control EPO peptide, are then added to methylcellulose to give a final volume of 1.5 mL. The methylcellulose and peptide mixture is then vortexed thoroughly. Aliquots (100,000 cells/mL) of human, bone marrow derived CD34+ cells (Poietics/Cambrex) are thawed. The thawed cells are gently added to 0.1 mL of 1 mg/ml DNAse (Stem Cells) in a 50 mL tube. Next, 40-50 mL IMDM medium is added gently to cells: the medium is added drop by drop along the side of the 50 mL tube for the first 10 mL, and then the remaining volume of medium is slowly dispensed along the side of the tube. The cells are then spun at 900 rpm for 20 min, and the media removed carefully by gentle aspiration. The cells are resuspended in 1 ml of IMDM medium and the cell density per mL is counted on hemacytometer slide (10 μL aliquot of cell suspension on slide, and cell density is the average count×10,000 cells/ml). The cells are then diluted in IMDM medium to a cell density of 15,000 cells/mL. A 100 μL of diluted cells is then added to each 1.5 mL methyl cellulose plus peptide sample (final cell concentration in assay media is 1000 cells/mL), and the mixture is vortexed. Allow the bubbles in the mixture to disappear, and then aspirate 1 mL using blunt-end needle. Add 0.25 mL aspirated mixture from each sample into each of 4 wells of a 24-well plate (Falcon brand). Incubate the plated mixtures at 37° C. under 5% CO2 in a humid incubator for 14 days. Score for the presence of erythroid colonies using a phase microscope (5×-10× objective, final magnification of 100×). The concentration of test peptide at which the number of formed colonies is 90% of maximum, relative to that observed with the EPO positive control, is recorded as the EC90 [See Table 2: C/BFU-e EC90].
For this assay, serial dilutions of test peptide are made in IMDM medium (Gibco) supplemented with 10% FBS (Hyclone). These serial dilutions, or positive control EPO peptide, are then added to methylcellulose to give a final volume of 1.5mL. The methylcellulose and peptide mixture is then vortexed thoroughly. […] The cells are resuspended in 1 ml of IMDM medium and the cell density per mL is counted on hemacytometer slide (10 μL aliquot of cell suspension on slide, and cell density is the average count×10,000 cells/ml). […]

[2] = tested on: anti-Peptide I antibodies; experiment: Anti-Peptide I antibody assay (ELISA) in patient serum; parameters: species or system human; conditions: 10 patients, after up to 10 doses
Experimental: The anti-Peptide I antibody assay was performed in the laboratories of the Sponsor using an ELISA method, with a sensitivity of 300 ng/mL [Fan Q., et al. (2006) Exp. Hematol. 34: 1303-11; Woodburn K W, et al. (2007) Exp. Hematol. 35: 1201-8]. Anti-EPO antibodies were measured by radioimmune precipitation assay. To confirm that the patient's antibodies were not cross-reactive with Peptide I, serum from three patients was tested in bone marrow cultures (established from healthy human donors, as previously described [Verhelst D, et al. (2004) Lancet 363: 1768-71]). Culture conditions included 20% of either fetal calf serum as a control or one of the study patient's serum. Cultures included either 1 IU/mL of recombinant human EPO or 0.55 μg/mL of Peptide I (a concentration previously shown to be equivalent to 1 IU/mL of EPO for erythroid growth). Erythroid colonies were counted on day 7.

## PEGylated homodimer of peptide monomers (AcG)GLYACHMGPIT(1-nal)VCQPLR(MeG)K (SEQ ID NO: 2), EPO-R agonist (Ac-GGLYACHMGPIT[1Nal]VCQPLR[Sar]K; disulfide 6-15 (inferred); not fully specified (residue 21); printed as (AcG)GLYACHMGPIT(1-nal)VCQPLR(MeG)K; also: PEGylated) [Peptide I]
[1]
  EC90: 3 nM
[2]
  anti-Peptide I antibodies in serum: No anti-Peptide I antibodies were detected
